From patent US20080125397A1, “2 (SULFONYL)ETHYL N,N,N',N' tetrakis(2 chloroethyl)phosphorodia” (Telik, Inc., priority 2006, published 2008)

What was measured:
[1] = test system: LNCaP (prostate carcinoma); experiment: Cytotoxicity/growth inhibition assay (CellTiter-Glo), LNCaP; type: cell-based, human
Description: (§1) The human cancer cell lines DLD-1 (colorectal adenocarcinoma), LNCaP (prostate carcinoma), and MIA PaCa-2 (pancreatic carcinoma) were obtained from the American Type Culture Collection, Manassas, Va., U.S.A., and MX-1 (breast carcinoma) from the National Cancer Institute, Bethesda, Md., U.S.A. The CellTiter-Glo assay kit was obtained from Promega Corporation, Madison, Wis., U.S.A. All products were used in accordance with manufacturer's directions. All assays were conducted in triplicate wells, with dimethyl sulfoxide (DMSO) solvent control. The extent of cell growth was expressed as a percentage of the signal from the solvent control wells.
(§2) Log-phase cells were trypsinized, collected by centrifugation, and resuspended in a small volume of fresh medium, and the density of viable cells was determined following Trypan Blue staining. Cells were diluted in fresh media (3×10^3 cells/mL for DLD-1, MIA PaCa-2, and MX-1, and 6×10^3 cells/mL for LNCaP), and added at 150 μL/well to 96-well plates, and incubated for several hours to allow attachment in the case of adherent cells. […] After incubation for 10 minutes at room temperature, and the plate was read with a luminometer.

[2] = test system: MIA PaCa-2 tumor; experiment: MiaPaCa-2 xenograft assay, intraperitoneal administration; type: in vivo, athymic nu/nu mice; settings: 100 mg/Kg intraperitoneal once/day for 7 consecutive days
Description: Male athymic nu/nu mice, 6-8 weeks old (approximately 20 g), were implanted subcutaneously in the right fore flank with 20-30 mg pieces of MIA PaCa-2 tumor harvested from similar nu/nu mice that had previously been implanted with the MIA PaCa-2 tumor. […] A group of mice was treated with 2-({2-oxo-2-[(pyridin-3-ylmethyl)-amino]ethyl}sulfonyl)ethyl N,N,N′,N′-tetrakis(2-chloroethyl)phosphorodiamidate hydrochloride, dissolved in aqueous 5% dextrose, at 100 mg/Kg by intraperitoneal injection once/day for 7 consecutive days, with vehicle control.

[3] = test system: MX-1 tumor; experiment: MX-1 xenograft assay, intraperitoneal administration; type: in vivo, athymic nu/nu mice
Description: (§3) Female athymic nu/nu mice (Harlan, Indianapolis, Ind., U.S.A. or similar vendor), 6-8 weeks old (approximately 20 g), were implanted in the mammary fat pad of the right fore flank with 20-30 mg pieces of MX-1 tumor harvested from similar nu/nu mice that had previously been implanted with the MX-1 tumor. […] Groups of mice were treated with 2-({2-oxo-2-[(pyridin-3-ylmethyl)amino]ethyl}sulfonyl)ethyl N,N,N′,N′-tetrakis(2-chloroethyl)phosphorodiamidate hydrochloride at 50 and 100 mg/Kg, dissolved in aqueous 5% dextrose, by intraperitoneal injection once/day for 5 consecutive days, with vehicle control. Tumor mass, estimated from volume, was measured twice weekly; and tumor growth inhibition was measured when the average tumor mass in the control group first exceeded 2000 mg.

[4] = Solubility in water; type: physicochemical
[5] = test system: MIA PaCa-2 (pancreatic carcinoma); experiment: Cytotoxicity/growth inhibition assay (CellTiter-Glo), MIA PaCa-2; type: cell-based, human
Description: as §1, §2

[6] = test system: MX-1 tumor; experiment: MX-1 xenograft assay, oral administration; type: in vivo, athymic nu/nu mice; settings: 150 mg/Kg by gavage once/day for 5 consecutive days
Description: as §3
(§4) A study similar to that described in In vivo Example 1 was performed using oral administration of 2-({2-oxo-2-[(pyridin-3-ylmethyl)amino]ethyl}sulfonyl)ethyl N,N,N′,N′-tetrakis(2-chloroethyl)phosphorodiamidate hydrochloride. A group of mice was treated with the compound, dissolved in water, at 150 mg/Kg by gavage once/day for 5 consecutive days (with vehicle control).

[7] = test system: MX-1 (breast carcinoma); experiment: Cytotoxicity/growth inhibition assay (CellTiter-Glo), MX-1; type: cell-based, human
Description: as §1, §2

[8] = test system: MX-1 tumor; experiment: MX-1 xenograft assay, intravenous administration; type: in vivo, athymic nu/nu mice
Description: as §3
as §4, with “intravenous” for “oral”, “aqueous 5% dextrose,” for “water,”, “40 and 80” for “150”, “tail vein injection” for “gavage”

[9] = test system: DLD-1 (colorectal adenocarcinoma); experiment: Cytotoxicity/growth inhibition assay (CellTiter-Glo), DLD-1; type: cell-based, human
Description: as §1, §2

[10] = Safety at the doses tested in the in vivo examples; set-up: species or system athymic nu/nu mice
Description: as §3, §4
A study similar to that described in In vivo Example 1 was performed using intravenous administration of 2-({2-oxo-2-[(pyridin-3-ylmethyl)amino]ethyl}sulfonyl)ethyl N,N,N′,N′-tetrakis(2-chloroethyl)phosphorodiamidate hydrochloride. […]

Compound	IC50 ([1]; Homo sapiens, 96 h, 4 days culture) [µM]	inhibition of tumor growth compared to vehicle [2] [%]	inhibition of tumor growth compared to vehicle ([3]; 50 mg/Kg intraperitoneal once/day for 5 consecutive days) [%]	inhibition of tumor growth compared to vehicle ([3]; 100 mg/Kg intraperitoneal once/day for 5 consecutive days) [%]	solubility [4] [mg/mL]	IC50 ([5]; Homo sapiens, 72 h, MIA PaCa-2, 3 days culture) [µM]	inhibition of tumor growth compared to vehicle [6] [%]	IC50 ([7]; Homo sapiens, 72 h, MX-1, 3 days culture) [µM]	inhibition of tumor growth compared to vehicle ([8]; 40 mg/Kg tail vein injection once/day for 5 consecutive days) [%]	inhibition of tumor growth compared to vehicle ([8]; 80 mg/Kg tail vein injection once/day for 5 consecutive days) [%]	IC50 ([9]; Homo sapiens, 96 h, DLD-1, 4 days culture) [µM]	potency compared with canfosfamide [1]	potency compared with canfosfamide ([5]; MIA PaCa-2)	potency compared with canfosfamide ([7]; MX-1)	potency compared with canfosfamide ([9]; DLD-1)	safety/toxicity [10]
Cl.O=C(CS(=O)(=O)CCOP(=O)(N(CCCl)CCCl)N(CCCl)CCCl)NCc1cccnc1 [2-({2-Oxo-2-[(pyridin-3-ylmethyl)amino]ethyl}sulfonyl)ethyl N,N,N′,N′-tetrakis(2-chloroethyl)phosphorodiamidate hydrochloride]	67	92	28	95	≥ 10	16	67	22	39	98	12					
O=C(CS(=O)(=O)CCOP(=O)(N(CCCl)CCCl)N(CCCl)CCCl)NCc1cccnc1 [2-({2-oxo-2-[(pyridin-3-ylmethyl)amino]ethyl}sulfonyl)ethyl N,N,N′,N′-tetrakis(2-chloroethyl)phosphorodiamidate]												at least as potent as canfosfamide	at least as potent as canfosfamide	at least as potent as canfosfamide	at least as potent as canfosfamide	safe and non-toxic
O=C(CS(=O)(=O)CCOP(=O)(N(CCCl)CCCl)N(CCCl)CCCl)NCc1cccnc1.O=C(O)C(O)C(O)C(=O)O [tartrate salt, 2-({2-Oxo-2-[(pyridin-3-ylmethyl)amino]ethyl}sulfonyl)ethyl N,N,N′,N′-tetrakis(2-chloroethyl)phosphorodiamidate tartrate]					≥ 5											
